These results are taken from patent US20220380408A1, “COMPOSITIONS AND METHODS FOR INHIBITING NEOINTIMAL FORMATION” (University of Virginia Patent Foundation, priority 2019, published 2022).

One assay concerns cyclin D. Put plainly: Co-immunoprecipitation of Cx43 with cyclin D in human coronary artery smooth muscle cells. It is filed as cell-based. The following applies: hCASMC. The procedure: (§1) Protein expression and interaction in cultured human coronary artery smooth muscle cells. Human coronary artery smooth muscle cells (Thermo Fisher Scientific, Inc., Waltham, Massachusetts, United States of America), were cultured until confluent in M231 media containing growth supplement (Thermo Fisher Scientific, Low Serum Growth Supplement Kit (LSGS) kit) as well as 20% fetal bovine serum (FBS). Prior to incubations, media was switched to low serum media (M231+2% FBS) for 3 days as previously described (Lohman et al., 2016). Cells were then incubated with oxidized phospholipids 1-palmitoyl-2-glutaroyl-sn-glycero-3-phosphorylcholine (PGPC, 100 μg) and 1-palmitoyl-2-oxovaleroyl-sn-glycero-3-phosphorylcholine (POVPC 100 μg), or the growth factor platelet derived growth factor beta (PDGF, 20 ng) as we have previously described (Johnstone et al. 2009; Johnstone et al. 2012) for 48 hours prior to harvesting and analysis for Western blotting and co-immunoprecipitation and EDU proliferation by flow cytometry as previously described (Johnstone et al. 2012). For peptide incubations, peptides were pre-incubated for 30 minutes with cells in fresh media prior to adding any further treatments.
However, the ability to bind with, and therefore activate, cyclin D was inhibited in the presence of PGPC (see FIG. 2A). […]

Assay [1] has as its system Human coronary artery smooth muscle cells. The assay is described as follows: EDU proliferation by flow cytometry in cultured human coronary artery smooth muscle cells. The following applies: for proliferation (EDU incorporation, flow cytometry): hCASMC incubated with agent for 48 hours (PGPC 100 μg, POVPC 100 μg, PDGF 20 ng). Format: cell-based. The procedure:
as §1
However, the ability to bind with, and therefore activate, cyclin D was inhibited in the presence of PGPC (see FIG. 2A). […] Taken together, this identified Cx43 phosphorylation status as a molecular switch that controlled cellular proliferation (MAPK-Cx43) or quiescence (PKC-Cx43), a model that is depicted in see FIG. 2C.
(§2) Peptides representing sequences within the C-terminus of human Cx43, designed by peptide array, inhibited proliferation of human smooth muscle cells (see FIGS. 3A-3F). Cells were pretreated for 30 minutes with peptides, prior to incubation with PDGF for 2 days.
A general note: In flow cytometry, cells or beads pass a laser one at a time.

The subject of assay [2] is human saphenous vein tissues. The assay is described as follows: Ex vivo human saphenous vein explant model (HUSVEM). The following applies: PDGF 50 ng/mL, 14 days, peptide 30 μM, everolimus 10 nM. It is filed as cell-based. As to the method: Ex vivo, human saphenous vein explant model (HUSVEM). The translational relevance of the peptides was assessed in an ex vivo, human saphenous vein explant model (HUSVEM) based on previously validated protocols (Baker et al. 1997; Dreifaldt et al. 2013; Loesch, Dashwood & Souza, 2006; George et al., 1996). Briefly, human veins were obtained as excess tissue from coronary artery bypass surgeries. The protocol was assessed by the Institutional Review Board (IRB) of the University of Virginia (Charlottesville, Va., United States of America), and no IRB protocol was required. Human saphenous veins were opened laterally, cut into 10 mm sections, and pinned with the endothelial side facing up on SYLGARD® brand silicone curing agent-coated plates in RMPI media containing 2% FBS. After 1 hour, cells were incubated with either control peptide or CycliCx peptide (30 μM; LDPAKDCGDQKYAY; SEQ ID NO: 1) or everolimus (10 nM; Sigma Aldrich) for a further 60 minutes, prior to adding PDGF (50 ng/mL). Media was changed daily with fresh media containing peptides or everolimus and PDGF. At the end of 14 days media was removed and tissues fixed in 4% PFA for 24 hours then washed in 70% ethanol, prior to embedding in 3% agarose. Samples were then processed by routine paraffin embedding and stained using hematoxylin and eosin and van Gieson stains. Comparisons of neointmal growth were made, where the uppermost layer of elastin was used to identify the start region for formed neointima. Neointimal areas were calculated across 10 serial sections from each tissue and averaged. Analysis of PDGF treated vessels to peptide and everolimus treated tissues were made.
An exemplary CycliCx peptide (LDPAKDCGDQKYAY; SEQ ID NO: 1) was applied to human saphenous veins in ex vivo preparations for 2 weeks in the presence of PDGF and compared to everolimus, an agent used in drug eluting stents.

The test system of a further assay is mouse carotid arteries. Put plainly: Mouse carotid ligation neointimal formation model. It is filed as in vivo. The following applies: for Neointimal/media Ratio (±SEM): carotid ligation, 200 μg peptide in pluronic, 2 weeks. As to the method: Mouse carotid surgeries. Carotid ligation and pluronic application surgeries were performed as described (Johnstone et al. 2009; Johnstone et al. 2012). Briefly, mice were anesthetized by isoflurane and the left common carotid artery was exposed and carefully freed from surrounding tissue. A 6/0 silk suture was run under the carotid artery distal to the bifurcation site and two consecutive, flat square knots were tied tight enough to restrict blood flow. Control mice were surgical controls, where carotid artery was exposed and freed of surrounding tissue as described above but no suture was applied. Following ligation either 35% F127 pluronic gel, CycliCx peptide (200 μg in pluronic; LDPAKDCGDQKYAY; SEQ ID NO: 1) or control peptide (200 μg in pluronic; AYFNGCSSPTAPLDP; SEQ ID NO: 3) was applied to the outside of the carotid wall and surgical wound closed. At 2 weeks after surgery, mice were euthanized with an intraperitoneal injection of 60-90 mg/kg pentobarbital. Mice were perfused with 4% paraformaldehyde (PFA) and both treated (left common) and control (right common) carotids removed and stored in 4% PFA overnight for whole mount analysis or immunosectioning. For in vivo cell proliferation studies, mice were preinjected with 5-ethynyl-2′-deoxyuridine (EDU) prior to surgery and carotids were removed post-treatment for whole mount or tissue cross section analysis of EDU incorporation into proliferating cells. For analysis of neointima formation in vessels, areas corresponding to the media (containing vascular smooth muscle cells (VSMC)), neointima (containing proliferating VSMC) and lumen (void area) were measured on Haemotoxylin and Eosin (H&E) stained cross sections of carotid vessels and analyzed by Image J, image analysis software. The ratio of media:neointima was calculated.
An exemplary CycliCx peptide (LDPAKDCGDQKYAY; SEQ ID NO: 1) was applied to the carotids of mice for 14 days after placement of a suture to induce neointimal formation (FIG. 4A). In both ligation only and ligation with peptide, extensive neointima formed. […] Effects were tested in both male and female mice, and no sex-specific differences were noted (FIG. 4B and Table 1).

Assay [3] has as its target T1, cyclin E (Homo sapiens, UniProt P24864). The assay is described as follows: Peptide array (truncation array) probed with cyclin E protein. The following applies: based on mouse Cx43 sequence; cyclin E 10 μg/mL overnight. Also on record: made in house. Format: binding. An excerpt: Peptide array. The C-terminus of the human Cx43 polypeptpide (Cx43-CT) is about 150 amino acids (a.a.) with a high abundance (>10%) of post-translationally modified sites (Aasen et al., 2018). This means that hundreds of combinations are required to delineate binding parameters. Using novel peptide array technology, the sites of interaction between connexin 43 (Cx43) and cyclin E were mapped. Immobilized peptide libraries corresponding to 25-residue regions of Cx43-CT were designed, synthesized, and nitrocellulose arrays generated. To test the requirement for phosphorylation, specific residues were replaced to mimic known protein interacting states (e.g., MAPK-Cx43 serines 255/262/279/282; see Johnstone et al. 2012). The role for phosphorylation was assayed in binding using single and multiple residue replacements. These included wild-type serine (S), native phospho-serine (pS), aspartate (D, phospho-mimic), or alanine (A, phospho-null) residues. Recombinant human cyclin E protein was generated for incubation with arrays (Johnstone et al. 2012). […] Signal was then detected using electrochemiluminescence (ECL) detection reagents as per manufacturer protocol (PIERCE™ brand, available from Thermo Fisher Scientific, Inc., Waltham, Mass., United States of America) and blots were scanned for analysis. […]

The target in assay [4] is T1, cyclin E. The assay is described as follows: Co-immunoprecipitation of Cx43/cyclin E interaction in human SMC. It is filed as cell-based. Also on record: host or cells: human coronary artery smooth muscle cells. The note with it: versus no peptide and scrambled peptide. As to the method: as §1
Peptides representing sequences within the C-terminus of human Cx43, designed by peptide array, inhibited proliferation of human smooth muscle cells (see FIGS. 3A-3F). […]

A further assay deals with Cx43. The assay is described as follows: Western blot of Cx43 phosphorylation status in human coronary artery smooth muscle cells. Format: cell-based. The following applies: hCASMC. The procedure:
as §1, §2
A general note: A western blot detects proteins with antibodies after separation by electrophoresis.

The test system of assay [5] is triple negative breast cancer (Hs578T). The assay is described as follows: WST-1 (viability/MTT) assay of cancer cell proliferation, Hs578T. It is filed as cell-based, human. The following applies: single treatment 30 μM at day 0; versus control peptide. As to the method: (§3) Two cancer cell lines originating from human melanoma (A375-MA2) and triple negative breast cancer (Hs578T) were used to assess the role of CycliCx in inhibiting proliferation. 500 cells per well were cultured in a 96-well plate containing 100 μl of medium. The next day (Day 0), 30 μM of CycliCx peptide or control peptide was added to the cells. Starting from Day 0, 10 μl of WST-1 reagent (viability/MTT) was added to each well and incubated for 75 minutes. Absorbance was measured at 450 nm. Data are presented in FIGS. 6B (A375-MA2) and 6C (Hs578T) as mean±SEM. p<0.05 by two way ANOVA.
In general terms: Tetrazolium dyes change colour on reduction, which living cells bring about.

Assay [6] has as its system human melanoma (A375-MA2). Put plainly: WST-1 (viability/MTT) assay of cancer cell proliferation, A375-MA2. It is filed as cell-based. The following applies: single treatment 30 μM at day 0; versus control peptide. The procedure:
as §3

“Also recorded” adds a separate entry of the source. Ends that are not written are not given here. * marks the point of attachment. Stearoyl = CCCCCCCCCCCCCCCCCC(=O)*

T1 sequence (P24864 whole entry, the tested form may be a part): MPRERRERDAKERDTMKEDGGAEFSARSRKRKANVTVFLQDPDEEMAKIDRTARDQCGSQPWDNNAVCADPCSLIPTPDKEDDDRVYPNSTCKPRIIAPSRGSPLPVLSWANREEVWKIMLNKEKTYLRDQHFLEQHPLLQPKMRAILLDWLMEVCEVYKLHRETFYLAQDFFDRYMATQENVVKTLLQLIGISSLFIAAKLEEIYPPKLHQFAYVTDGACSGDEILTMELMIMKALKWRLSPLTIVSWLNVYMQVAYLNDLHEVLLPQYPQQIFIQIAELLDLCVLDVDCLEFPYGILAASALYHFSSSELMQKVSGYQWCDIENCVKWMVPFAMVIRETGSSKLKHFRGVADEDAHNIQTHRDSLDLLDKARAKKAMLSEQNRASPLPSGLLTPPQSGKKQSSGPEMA

For `CCCCCCCCCCCCCCCC(=O)OC[C@H](COP(=O)([O-])OCC[N+](C)(C)C)OC(=O)CCCC(=O)O` [PGPC, 1-palmitoyl-2-glutaroyl-sn-glycero-3-phosphorylcholine, reference compound], in the assay on cyclin D, the “ability of Cx43 to bind with, and therefore activate, cyclin D” value is given as “inhibited”. For the same molecule, the “proliferation (EDU incorporation, flow cytometry)” value in assay [1] is given as “decreased proliferation”.

On to `CCCCCCCCCCCCCCCC(=O)OC[C@H](COP(=O)([O-])OCC[N+](C)(C)C)OC(=O)CCCC=O` [POVPC, 1-palmitoyl-2-oxovaleroyl-sn-glycero-3-phosphorylcholine, reference compound], for which the “proliferation (EDU incorporation, flow cytometry)” value in [1] is “increased proliferation”.

With `CO[C@H]1C[C@@H]2CC[C@@H](C)[C@@](O)(O2)C(=O)C(=O)N2CCCC[C@H]2C(=O)O[C@H]([C@H](C)C[C@@H]2CC[C@@H](OCCO)[C@H](OC)C2)CC(=O)[C@H](C)/C=C(\C)[C@@H](O)[C@@H](OC)C(=O)[C@H](C)C[C@H](C)/C=C/C=C/C=C/1C` [everolimus, reference compound], the “neointimal formation in human saphenous veins” value in assay [2] is recorded as “inhibited neointimal formation”.

As to “AYFNGCSSPTAPLDP [Control Pep, non-targeting control peptide, reference compound]”, the “Neointimal/media Ratio (±SEM)” value in the assay with mouse carotid arteries (female mice) is given as 1.017 ± 0.3869; in the assay on mouse carotid arteries (male mice) it was 0.6690 ± 0.1111. In addition, in [2], the “neointimal formation in human saphenous veins” value is listed as “neointima were identified”.

For DPSKDCGDPKYAY, in the assay with cyclin E [3], the “sequence required for cyclin E binding in truncation-based array” value is “minimum sequence”.

Regarding “LDPSKDCGDPKYAY [pep3(mouse), CycliCx peptide with mouse Cx43 residues at positions 257 and 263]”, the “interactions with cyclin E (co-immunoprecipitation)” value with cyclin E [4] is reported as “significantly reduced”. Moreover, in the assay with Cx43, the “PKC-phosphorylated Cx43 species (western blot, pS368)” value is listed as “predominantly induced” and the “phosphorylation status of Cx43 (western blot)” value is “altered”. For the same molecule, the “phosphorylation status of Cx43 (western blot)” value with Cx43 (listed as pep3) is “significantly altered”.

For the molecule “stearate-LDPAKDCGDQKYAY (Stearoyl-LDPAKDCGDQKYAY) [CycliCx]”, the “proliferation of Hs578T cells” value in assay [5] is “significantly inhibit proliferation”. Besides, the “Neointimal/media Ratio (±SEM)” value with mouse carotid arteries (female mice) was found to be 0.0060 ± 0.0379; with mouse carotid arteries (male mice), 0.0110 ± 0.0055. The “neointimal formation induced by suture ligation” value with mouse carotid arteries (mouse carotid, peptide applied for 14 days) is listed as “completely inhibited; also recorded: prevented”. The “proliferation of A375-MA2 cells” value in assay [6] is “significantly inhibit proliferation”. In [2], the “neointimal formation in human saphenous veins” value is reported as “inhibited neointimal formation; also recorded: completely inhibited”. Besides, in assay [1] (peptide pretreatment 30 minutes, then PDGF for 2 days, versus PDGF alone or Scr peptide), the “EDU incorporation (proliferation) of human smooth muscle cells” value is recorded as “reduced”.

B1: platelet derived growth factor beta (protein, UniProt P01127 82-190, looked up)
Platelet-derived growth …: SLGSLTIAEPAMIAECKTRTEVFEISRRLIDRTNANFLVWPPCVEVQRCSGCCNNRNVQCRPTQVQLRPVQVRKIEIVRKKPIFKKATVTLEDHLACKCETVAAARPVT
notes: growth factor promoting MAPK phosphorylation of Cx43
As for B1, in [1], the “proliferation (EDU incorporation, flow cytometry)” value is given as “increased proliferation”.
